Key:
[1] = tested on: female Aedes aegypti mosquitoes; assay: Non-competitive olfactometer bioassay of absolute attraction to attractants with or without candidate inhibitors; assay type: in vivo; conditions: for Attraction Mean ± SE (%): 50 μL heterocycle combined with 500 μL 3-compound attractant blend, line Blend = attractant alone; for Attraction with 50 μL 1-MPZ mean ± SE (%): 3 min
[2] = tested on: female Ae. aegypti; assay: Competitive (two-port) olfactometer bioassay of attractants and inhibitors; assay type: in vivo, Aedes aegypti
Excerpt: Mosquitoes choose to fly upwind into a port with the treatment or choose to remain in the cage. It is clear that in competition, these mosquitoes preferred the natural human odors over the blend by about a 5:1 margin.

[3] = tested on: Anopheles albimanus mosquitoes; assay: as above; assay type: in vivo; conditions: competing port: B + (1-MPZ) + (4-MM)

Q: Which “Attraction Mean ± SE (%)” value ([1]; listed as 1,4-bis (2-hydroxyethyl)piperazine-2,2′-1,4-diyldiethanol) does the source give for `OCCN1CCN(CCO)CC1` [1,4-bis(2-hydroxyethyl)piperazine] here?
A: The value was 73%.

Q: `CCCCCCCCN1CCN(C)CC1` [1M-4-OPZ, 1-methyl-4-octylpiperazine] was tested. Which “Attraction mean ± SE (%), Treatment 2” value ([2]; port: B + (1-M-4-OPZ), competing port: B + (1-MPZ)) did it give?
A: The value was 24.5 ± 4.4%.

Q: Which “Attraction with 50 μL 1-MPZ mean ± SE (%)” value ([1]; attractant: 1 mL 3-compound blend) does the source give for `CN1CCNCC1` [1-MPZ, 1-methylpiperazine] here?
A: The value was 12.8 ± 1.8%.

Q: And the “Attraction with 50 μL 1-MPZ mean ± SE (%)” value ([1]; attractant: human arm/hand odor)?
A: The value was 23.5 ± 3.0%.

Q: What about the “Total Catch (%)” value ([2]; both ports: Human + 1-MPZ (50 μL) vs Blend, 97.2% without 1-MPZ) of the same molecule?
A: Its value is 78.1%.

Q: And the “Attraction mean ± SE (%), Treatment 1” value ([2]; port: B + (1-MPZ), competing port: B + (1-M-4-OPZ))?
A: Its value is 4.6 ± 1.5%.

Q: What about the “Attraction mean ± SE (%), Treatment 2” value ([2]; port: B + (1-MPZ), competing port: B + (1-MPZ) + (4-MM)) of the same molecule?
A: The value was 5.1 ± 1.1%.

Q: What about the “Attraction mean ± SE (%), Treatment 1” value ([2]; port: B + (1-MPZ), competing port: B + (4-MM)) of the same molecule?
A: The value was 5.4 ± 1.3%.

Q: And the “Attraction mean ± SE (%), Treatment with Inhibitor” value ([2]; port: Blend + inhibitor (50 μL each), competing port: Blend)?
A: The value was 3.4 ± 1.0%.

Q: What about the “Attraction mean ± SE (%), Treatment with Inhibitor” value ([2]; port: Blend + inhibitor (50 μL each), competing port: RH odors) of the same molecule?
A: The value was 0.9 ± 0.3%.

Q: What about the “Attraction mean ± SE (%), Treatment with Inhibitor” value ([2]; port: RH odors + inhibitor (50 μL each), competing port: Blend) of the same molecule?
A: Its value is 14.1 ± 2.7%.

Q: What about the “Attraction mean ± SE (%), Treatment with Inhibitor” value ([2]; port: RH odors + inhibitor (50 μL each), competing port: LH odors) of the same molecule?
A: The value was 7.7 ± 1.2%.

Q: And the “Attraction ± SE (%), Treatment 1 port” value ([2]; port: human odor + 50 μL 1-MPZ, competing port: Blend)?
A: The value was 29.5 ± 3.2%.

Q: What about the “Attraction mean ± SE (%), Treatment 2” value ([3]; port: B + (1-MPZ)) of the same molecule?
A: The value was 9.7 ± 3.3%.

Q: Which results are given for `CN1CCOCC1` [4-MM, 4-methylmorpholine]?
A: Attraction mean ± SE (%), Treatment 2 ([2]; port: B + (4-MM), competing port: B + (1-MPZ)): 8.0 ± 1.1%; Attraction mean ± SE (%), Treatment 2 ([2]; port: B + (4-MM), competing port: B + (1-MPZ) + (4-MM)): 5.1 ± 1.8%; Attraction mean ± SE (%), Treatment 2 ([3]; port: B + (4-MM)): 5.2 ± 2.0%

Q: With `C1CNCCN1` [piperazine] as the molecule, how does the “Attraction Mean ± SE (%)” value [1] read?
A: Its value is 41.4%.
